These results are taken from patent publication US20120301895A1, “METHODS OF MODULATING BINDING OF SON OF SEVENLESS TO PHOSPHATIDIC ACID AND IDENTIFYING COMPOUNDS THAT MODULATE SUCH BINDING” (THE RESEARCH FOUNDATION OF STATE UNIVERSITY OF NEW YORK, priority 2007, published 2012).

SMILES strings stand for the structures.

The test system of one assay is S6K and 4E-BP1. Description: Phosphorylation of mTOR substrates S6K and 4E-BP1 in MDA-MB-231 cells (Western blot). It counts as cell-based, human. Conditions: honokiol 20 μM, 0.5% serum. The method, then: In FIG. 15A, MDA-MB-231 cells were plated in DMEM with 10% serum. 48 hr later the cells were shifted to 0.5% for 16 hr. Honokiol (20 μM) or control ethanol was then added for the indicated times. The cells were then harvested and analyzed for levels of S6K, phosphorylated S6K (P-S6K), 4E-BP1, and P-4E-BP1 by Western blot analysis as described previously (Zheng et al., “Phospholipase D Couples Survival and Migration Signals in Response to Stress in Human Breast Cancer Cells,” J. Biol. Chem. 281:15862-8 (2006), which is hereby incorporated by reference in its entirety). In FIG. 15B, 786-O cells were plated and then shifted to media containing 0.5% serum 24 hr later. 18 hr later, the cells were treated with 1-Bt0H (0.8%), honokiol (Hon) (20 μM), and t-BtOH (0.8%) as indicated. Cell lysates were prepared 4 hr later and examined for HIF2α and actin expression by Western lot analysis. The experiment shown is representative of two independent experiments.
Extraction of proteins from cultured cells and Western blot analysis of extracted proteins was performed using the ECL system (Amersham) as described previously (Chen et al., “Alternative Phospholipase D/mTOR Survival Signal in Human Breast Cancer Cells,” Oncogene 24:672-9 (2005), which is hereby incorporated by reference in its entirety). […]

The subject of assay [1] is B-cell chronic lymphocytic leukemia cells. As to conditions: Battle et al. 2005; cited from earlier work.
The subject of assay [2] is PLD activity in MDA-MB-231 cells. Description: In vivo PLD activity (transphosphatidylation, PBt) in MDA-MB-231 cells. It counts as cell-based, human. As to conditions: honokiol 20 μM, 4 hr. The method, then: In FIG. 13A, MDA-MB-231 cells were plated as in FIGS. 12A-C and then shifted to either 10% serum or 0.5% serum overnight as indicated. Honokiol (20 μM) or control ethanol was then added for 4 hr as indicated, at which time the cells were harvested and the levels of PBt were determined as in FIGS. 12A-C. The experiment shown is representative of at least three independent experiments. In FIG. 13B, the effect of honokiol on the activity of PLD isoforms was measured using exogenous substrate assay as described previously (Henage et al., “Kinetic Analysis of a Mammalian Phospholipase D: Allosteric Modulation by Monomeric GTPases, Protein Kinase C, and Polyphosphoinositides,” J. Biol. Chem. 281:3408-17 (2006), which is hereby incorporated by reference in its entirety). […] The amount of background was determined and subtracted using a bovine serum albumin standard. […]
For in vivo PLD activity, cells were plated in 60 mm culture dishes in DMEM with 10% serum at a density that would allow them to grow to about 80% confluence after 2 days, then cells were shifted to DMEM containing 0.5% or 10% serum as indicated in the figure legends overnight. […] Briefly, PLD activity was measured by the release of [methyl-^3H] choline from [choline-methyl-^3H]dipalmitoyl-phosphatidylcholine. […]

Turning to `C=CCc1ccc(O)c(-c2ccc(O)c(CC=C)c2)c1` [honokiol, Honokiol], in the assay on S6K and 4E-BP1, the “phosphorylation of 4E-BP1” value is “suppressed” and the “phosphorylation of S6K” value is given as “suppressed”. In assay [1], the “apoptosis in B-CLL cells” value is given as “induce caspase-dependent apoptosis”. Also, the “PLD activity in cells in 0.5% serum (stress-induced)” value in assay [2] (0.5% serum) is “completely suppressed”. Also, the “basal PLD activity in cells maintained in 10% serum” value in assay [2] (10% serum) is “little effect”.
